Data on one compound can be found in publication PMC8706998, “Lipid Nanocarriers-Loaded Nanocomposite as a Suitable Platform to Release Antibacterial and Antioxidant Agents for Immediate Dental Implant Placement Restorative Treatment” (Pharmaceutics, 2021).

SMILES strings stand for the structures. Several values for one entry are separate records, joined by “and”; a condition that tells them apart may be missing. Equal entries are not always repeated.

A short description of data set [1]: CPX release study, dialysis tube method. Conditions: from BioQ-CPX, citrate buffer pH 5.5 + acetic acid, after 1.5 h. The class given is physicochemical. On the procedure:
(§1) The system was submerged in 15 mL of the same medium; (b) Franz diffusion cells (Permeagear, flat flange joint, 9 mm orifice diameter, 15 mL acceptor volume, SES GmbH-Analysesysteme, Bechenheim, Germany) consisting in a donor chamber filled with 10 mg of powder and soaked with 0.5 mL of citrate buffer pH 5.5, and an acceptor chamber filled with 15 mL of the same medium plus glacial acetic acid 0.01% (v/v). A cellulose dialysis membrane (Medicell Membranes, London, UK: MWCO: 12–14,000 Da) previously soaked with the acceptor fluid, was inserted between the two compartments.
(§2) QRC release studies were carried out using a modified transwell permeable support (0.45 µm) filled with 5 mg of the BioQ-CPX powder and soaked with 0.2 mL of citrate buffer pH 5.5. The entire system was dipped inside a beaker filled with 8 mL of 1-octanol as a suitable acceptor fluid. […] The experiments were carried out at 37 ± 0.5 °C under constant stirring and protected by light exposure while, immediately after sampling, opportune volumes of fresh acceptor fluid were added to maintain the sink conditions. Data are reported as means ± SE (n = 6). Drug release profiles were elaborated using OriginPro 8.5 software and fitted with semi-empirical model equations. Fittings were validated by using R^2 value where a p-value of less than 0.05 was considered statistically significant.

The nature of data set [2]: CPX release study, Franz diffusion cell with cellulose membrane. As to conditions: CPX release from BioQ-CPX, data up to 9 h. In kind it is physicochemical. On the procedure: as §1, §2
Data set [3] is described as follows: Ex vivo permeation/penetration experiments in Franz-type cells. In kind it is in vitro ADME, pig. As to conditions: from 30 mg BioQ-CPX. On the procedure:
Tissue specimens were obtained from the vestibular area of the retromolar trigone derived from 6–8-month-old pigs supplied by the Municipal Slaughterhouse of Villabate (Palermo, Italy) since withdrawn from animals intended for human consumption. By a refrigerated transport box, the specimens were immediately transferred to the laboratory within 1 h from animal sacrifice and surgically treated to remove both adipose and connective tissues in excess. Afterward, they were dipped for 30 min in a 5% THR (w/v) isotonic solution and then stored at −80 °C for a minimum period of one week. Before the permeation/penetration experiments, tissue samples were accurately washed to remove the cryoprotectant, and, subsequently, thermal shocked to obtain the buccal mucosa. Briefly, tissue samples were dipped for 30 s in a pre-warmed (70 °C) isotonic solution, and then the mucosa was carefully peeled off from the connective tissue, obtaining the heat-separated epithelium along with the intact basal lamina. Finally, it was equilibrated in an isotonic solution for 3 h by replacing the medium every 15 min to remove all the biological matter, which could affect the analysis, before use.
The ex vivo permeation/penetration studies were carried out using vertical Franz-type diffusion cells. Briefly, appropriate sections of buccal mucosa were mounted between the donor and the acceptor chambers filled with 1 mL of citrate buffer pH 5.5 and 15 mL of citrate buffer pH 5.5 amended with acetic acid 0.1% (v/v), Acys 0.002% (w/v), and β-CD 3% (w/v). The whole system was equilibrated at 37 ± 0.5 °C for 30 min. Afterward, the medium was removed from the donor compartment, promptly replaced with 30 mg of BioQ-CPX, and soaked with 0.2 mL of citrate buffer pH 5.5. Every 30 min, aliquots (0.5 mL) were withdrawn from the acceptor chamber and immediately replaced with the same volume of fresh acceptor fluid to maintain the sink conditions. Experiments were carried out at 37 ± 0.5 °C in the dark and under constant stirring, being stopped at different time points ranging from 1 to 6 h. The amount of permeated QRC and CPX were quantified by UV–Vis analysis. Data are reported as means ± SE (n = 6).
Briefly, the mucosa was dipped into 2 mL of methanol and warmed up to 60 °C. The extraction procedure was performed twice, and the collected extraction liquors were transferred into a 10 mL flask and brought to volume with fresh methanol. Thus, QRC and CPX amounts were determined by UV–Vis analysis. Results are reported as means ± SE.

Data set [4] concerns Staphylococcus aureus ATCC 25923 strain, growing as planktonic cells. The experiment in a line: Kill curve assay. Conditions: ca. 0.1 mg/mL CPX (highest amount in BioQ-CPX); data not shown. The class given is cell-based. On the procedure:
Kill curve assays were performed to test the antimicrobial efficacy of BioQ-CPX, BioQ, and the Blank CTS matrix against the indicator pathogen Staphylococcus aureus ATCC 25923 strain, growing as planktonic cells. Briefly, a single colony of S. aureus strain was picked up and pre-cultivated (ca. 16 h) at 37 °C with shacking (160 rpm) in tryptone soy broth medium (hereinafter named as TSB; Merck, Milan, Italy). The same medium was solidified by adding 15 g/L of bacteriological agar when needed. Bacterial cells were then inoculated [0.05% v/v corresponding to ca. 5 × 10^5 colony forming units (CFU) per mL of culture] in TSB medium amended with increasing concentrations (i.e., 1, 2.5, and 5 mg/mL) of the above-mentioned samples. The set up bacterial cultures were challenged for 24 h according to the same pre-culturing conditions. The actual number of viable S. aureus CFU/mL—who survived the challenge exerted by BioQ-CPX, BioQ, and Blank matrix—was evaluated through the spot plate count method and compared to unchallenged cultures. The data are reported as average values (n = 3) of the CFU/mL in the logarithmic (Log10) scale with standard deviation (SD).

Data set [5] has as its system S. aureus cells growing as a biofilm. The experiment in a line: Biofilm inhibition, crystal violet staining. The class given is cell-based, Staphylococcus aureus. As to conditions: 5 mg BioQ-CPX in 200 μL culture, CPX at the same concentration as in BioQ-CPX; 24 h, 37 °C. On the procedure:
Briefly, pre-cultivated S. aureus cells for 16 h at 37 °C were inoculated (1% v/v corresponding to ca. 1 × 10^7 CFU/mL) in TSB medium. The set-up culture was aliquoted (200 μL) in a 96-well microtiter plate. […] The microtiter plate was then incubated for 24 h at 37 °C under static mode, allowing for bacterial biofilm formation. After the incubation period, bacterial cultures have been disposed, while each well was washed 3 time with 200 μL of sterile physiological (NaCl 0.9% w/v) solution to remove loosely adherent cells. Then, S. aureus biofilms were stained by adding 200 μL of an aqueous crystal violet (0.1% w/v) solution at room temperature for 15 min. Subsequently, wells were washed 5 times with 200 μL of physiological solution to remove the excess of unbound crystal violet and left to dry for 20 min at 65 °C. Finally, crystal violet was solubilized by adding 200 μL of an acetic acid (30% v/v) solution, the absorbance (Abs) being read at 600 nm using a DU-730 Life Science spectrophotometer (Beckman Coulter, Brea, CA, USA). Unchallenged cultures were used as reference biofilms (positive control), while wells containing only the medium utilized in this study were used as a negative control. The percentage of biofilm inhibition was calculated as follows: Biofilm inhibition (%)=(Abs positive control−Abs challenge)/Abs positive control×100

As to `O=C(O)c1cn(C2CC2)c2cc(N3CCNCC3)c(F)cc2c1=O` [CPX, Ciprofloxacin], the CPX released in data set [1] came out at 80%. In data set [2], the Korsmeyer-Peppas n was 0.8280 ± 0.0125 and 0.8280; the “Korsmeyer-Peppas with Tlag n” value is reported as 0.8293. Also, in data set [2] (time in hours), the First-Order k was determined as 0.1359, the Korsmeyer-Peppas k amounted to 0.1134, the “Korsmeyer-Peppas with Tlag k” value is given as 0.1113 and the “Korsmeyer-Peppas with Tlag: Tlag” value is −0.031. Also, in data set [2] (time in hours), the Zero-Order k was determined as 0.079. For the same compound, the “maximum amount accumulated into the mucosa” value in data set [3] (after 5 h) is given as “about 5 % of drugs dose”. Also, the “amount accumulated into the mucosa” value in data set [3] (first hour from application) is “about 4 % of dose”. In addition, in data set [4], the “effect on bacterial growth” value is recorded as “did prevent bacterial growth”. The “S. aureus biofilm formation inhibition” value in data set [5] is on record as “ca. 55%”.
